The values below come from paper PMC9654571, “Water-Soluble Truncated Fatty Acid–Porphyrin Conjugates Provide Photo-Sensitizer Activity for Photodynamic Therapy in Malignant Mesothelioma” (Cancers, 2022).

The nature of series [1]: Annexin V-FITC/PI cell death analysis by flow cytometry, MSTO-211H. Format: cell-based, human. Conditions: human, MSTO-211H cells, dark, 48 h, read-out: viable cells. The method, then: (§1) Cells were harvested in accordance with methods previously described and seeded into 24-well plates (Nunc, London, UK) at a density of 2 × 10^5 cells per well in 1000 μL of complete RPMI; the culture plates were seeded approximately 24 h before PDT. Cell treatment and irradiation was performed in accordance with methods previously described.
(§2) Annexin V-FITC/PI staining and cell death analysis was performed at both 24- and 48 h time points following PDT (representative flow cytometry dot-plots from Annexin V-FITC/PI-stained cells in Supplementary Materials-Figure S2). Non-adherent cells were harvested through the removal of culture medium and adherent monolayers were trypsinized and returned to the removed media. Harvested cells were removed from media via centrifugation (5 min, 400× g) (VWR Mega Star, Leicestershire, UK) and resuspended in Annexin V Binding Buffer. Following a second centrifugation, Annexin V Binding Buffer was discarded, and cell pellets were resuspended in the residual volume. Cells were stained with Annexin V-FITC (5 μL) and PI (10 μL) and incubated at room temperature for 15 min protected from light. 200 µL of Annexin V Binding Buffer was added prior to immediate analysis using a BD FACSCalibur (BD Biosciences, Wokingham, UK) and data from 10,000 events was collected. Flow cytometry results were analyzed using FlowJo™ v10.8 Software (BD Life Sciences). Quadrants consisted of Viable (Annexin V-FITC^−/PI^−), early stage apoptotic (Annexin V-FITC^+/PI^−) and late-stage apoptotic/necrotic (Annexin V-FITC^+/PI^+) populations.
(In general: A flow cytometer gives signals particle by particle.)

The subject of series [2] is MSTO-211H cells. Described as above. Format: cell-based, human. Conditions: light; for EC50: read-out: EC50 (50% reduction in viable cell populations), PDT activity. The method, then: as §1, §2
A short description of series [3]: WST-8 cell viability assay after PDT, Met-5a. Format: cell-based. Conditions: human, Met-5a cells, light, read-out: cell viability relative to untreated control. The method, then: (§3) Porphyrin PS stock solutions 4, 5, and 6 (Scheme 1) were prepared by dissolving a 5 mg aliquot in 500 μL of 1 M NaOH. This was added to 9.5 mL of complete media to prepare a 500 μg/mL stock solution. Stock solutions were filter sterilized using a Millipore PES membrane filter (Merck, Watford, UK). Working solutions were prepared immediately before PDT experiments and consisted of six treatments: an untreated control, vehicle control, and four porphyrin concentrations (5, 10, 15, and 20 μg/mL).
(§4) Cells were detached using a trypsin/EDTA solution (Lonza). Trypan blue (0.4% v/v) exclusion was used to count viable cells before seeded into 96-well plates (Nunc) at a density of 5 × 10^3 cells per well in 200 μL of complete RPMI. Cell culture plates were seeded approximately 24 h before PDT. Media was aspirated and replaced with equal volumes of the respective PS treatment. For the purpose of background subtraction, PS treatments were also added to wells without cells. Following 3 h of incubation (37 °C, 5% CO2:95% air), plates were irradiated for 15 min on a 15 W light box (UVP, Cambridge, UK). Experiments performed parallel to dark-treated control plates.
Cell viability was assessed by the colorimetric WST-8 assay. Following 24 h of incubation (37 °C, 5% CO2:95% air), 10 μL of WST-8 was added to each cell-containing well of the 96-well plates. The plates were incubated for 3 h (37 °C, 5% CO2:95% air) and then analyzed at 450 nm using a Clariostar Plate Reader (BMG Labtech, Ortenberg, Germany). Corrected absorbance was calculated in each case by subtraction of the media only controls. Finally, percentage cell viability was expressed relative to untreated control values.
(Tetrazolium assays rely on reduction of a dye to a coloured formazan, in cell work by metabolically active cells.)

Series [4] relates to NCI-H28 cells. The series is described as follows: WST-8 cell viability assay after PDT, NCI-H28. The class given is cell-based, human. Conditions: Homo sapiens; NCI-H28, 5 μg/mL, light, 48 h; read-out: cell viability relative to untreated control. The method, then:
as §3
as §4, with “Experiments performed parallel to dark-treated control plates.” left out
(§5) Cell viability was assessed by the colorimetric WST-8 assay. […] The plates were incubated for 3 h (37 °C, 5% CO2:95% air) and then analyzed at 450 nm using a Clariostar Plate Reader (BMG Labtech, Ortenberg, Germany). Corrected absorbance was calculated in each case by subtraction of the media only controls. […]

A short description of series [5]: WST-8 cell viability assay after PDT, NCI-H28. Conditions: human, NCI-H28 cells, NCI-H28, 5 μg/mL, dark, read-out: cell viability relative to untreated control. The class given is cell-based, human. The method, then: as §3
as §4, with “Experiments performed parallel to dark-treated control plates.” left out
as §5

The nature of series [6]: UV/vis absorbance spectroscopy in DMSO, water and 1 M HCl (stacking, aqueous solubility). Format: physicochemical. As to conditions: absorption spectra in water vs DMSO and 1 M HCl. The method, then: UV/vis absorbance spectroscopy in DMSO, water and 1 M HCl. For each of the porphyrins 5, 6, and 7, 5 mg, was dissolved in 30 µL of 1 M NaOH H this was diluted to 5 mL with distilled to give stock solutions of concentrations 0.926 mM, 0.88 mM and 0.77 mM, respectively. In a quartz 96 well plate, 20 µL was added to a well and diluted to a volume of 320 µL with either DMSO, water or 1 M HCl.

The test system of series [7] is NCI-H28 cells. The series is described as follows: Annexin V-FITC/PI cell death analysis by flow cytometry, NCI-H28. As to conditions: light; for EC50: read-out: EC50 (50% reduction in viable cell populations), PDT activity. Format: cell-based, human. The method, then:
as §1, §2

Assay in series [8]: as above
Format: cell-based, human. As to conditions: human, NCI-H28 cells, read-out: viable cells. The method, then: as §1, §2

The nature of series [9]: WST-8 cell viability assay after PDT, MSTO-211H. Format: cell-based, human. Conditions: human, MSTO-211H cells, dark; for viability at 48 h, 5 μg/mL: read-out: cell viability relative to untreated control. The method, then:
as §3, §4
(§6) Cell viability was assessed by the colorimetric WST-8 assay. […] The plates were incubated for 3 h (37 °C, 5% CO2:95% air) and then analyzed at 450 nm using a Clariostar Plate Reader (BMG Labtech, Ortenberg, Germany). Corrected absorbance was calculated in each case by subtraction of the media only controls. Finally, percentage cell viability was expressed relative to untreated control values.

For series [10], the system named is MSTO-211H cells. Description: WST-8 cell viability assay after PDT, MSTO-211H. Format: cell-based, human. Conditions: Homo sapiens, 5 μg/mL, light, 48 h, read-out: cell viability relative to untreated control. The method, then: as §3, §4, §6
Series [11] deals with Met-5a cells. Description: Annexin V-FITC/PI cell death analysis by flow cytometry, Met-5a. The class given is cell-based, human. Conditions: for EC50: Homo sapiens, read-out: EC50 (50% reduction in viable cell populations), PDT activity. The method, then:
as §1, §2

Series [12] deals with MSTO-211H cells. Description: Cellular localization by high content fluorescence microscopy. Format: cell-based, human. As to conditions: 24 h incubation. The method, then: Cells were harvested in accordance with methods previously described and seeded into 24-well plates (Nunc, London, UK) at a density of 25,000 treated with porphyrin working solutions made up from the porphyrin PS stock solutions and incubated for 24 h. The cells were visualized using a Cytation 5 (Agilent Technologies, Cheadle, UK) high content microscopy platform at 20× magnification.

Setting [13] is: Homo sapiens, 24 h, 24 h time point.
The mark [14] stands for this setting: Homo sapiens, 48 h, 48 h time point.
Setting [15] is: Homo sapiens, NCI-H28, 24 h, NCI-H28, 24 h time point.
The mark [16] stands for this setting: Homo sapiens, NCI-H28, 48 h, NCI-H28, 48 h time point.
[17] abbreviates: 20 μg/mL, time point not stated.

Molecules are shown by their SMILES. Values after ≈ are worked out from the molar mass of the structure shown. Like-named read-outs stand apart in the source and are kept apart here. Marks after values point to notes of the source that are not given here. A value given as a limit tells only on which side of the number the result lay.

Regarding `O=C(O)CCCCOc1cccc(-c2c3nc(c(-c4cccc(OCCCCC(=O)O)c4)c4ccc([nH]4)c(-c4cccc(OCCCCC(=O)O)c4)c4nc(c(-c5cccc(OCCCCC(=O)O)c5)c5ccc2[nH]5)C=C4)C=C3)c1` [C5SHU], the viability at 48 h, 15 μg/mL in series [1] (15 μg/mL) was determined as 63.6%; in series [9] (15 μg/mL, read-out: dark toxicity (cell viability)), 30%. Further, the viability at 48 h, 20 μg/mL amounted to 46.1% in series [1] (20 μg/mL) and 26% in series [9] (20 μg/mL, read-out: dark toxicity (cell viability)). For the same compound, the apoptotic cell population was determined as 49% in [2] (10 μg/mL, 24 h) and 16% in [7] (NCI-H28, 10 μg/mL, 24 h). Further, the necrotic cell population in series [2] (10 μg/mL, 24 h) is on record as 34%; in [7] (NCI-H28, 10 μg/mL, 24 h), 53%. Besides, the “EC50 (50% reduction in viable cell populations), PDT activity” value in series [2] (24 h time point) came out at 7.8 ± 3 µg/mL (≈ 7.23 µM); in [7] (NCI-H28, 24 h time point) it was 7.7 ± 1 µg/mL (≈ 7.13 µM). Moreover, the EC50 in series [2] (setting [13]) is 7.7 µg/mL (≈ 7.13 µM); in series [2] (setting [14]), 2.8 ± 1.5 µg/mL (≈ 2.59 µM); in [7] (setting [15]), 7.8 µg/mL (≈ 7.23 µM); in series [7] (setting [16]) it was 6 ± 1 µg/mL (≈ 5.56 µM); in series [11] (24 h time point, light), greater than 20 µg/mL; in series [11] (48 h time point, light), 5.1 ± 1 µg/mL (≈ 4.73 µM). In series [3], the viability at 24 h, 5 μg/mL is roughly 28%. In addition, the figures for the viability at 48 h, 5 μg/mL in series [3], in series [5] and in [9] were roughly 11%, 116% and 100%, respectively. For the same compound, the viability at 5 µg/mL was found to be 16% in series [4] and 22% in series [10]. Moreover, the “stacking in aqueous solutions” value in series [6] is reported as “least evidence of stacking”. Besides, the viability in [8] (NCI-H28, dark, unchanged with porphyrin dose) is roughly 95%. Besides, the cell death result in [11] (24 h, all dose concentrations) is recorded as “no significant cell death”. Besides, the dark toxicity entry in [11] (24 h, all dose concentrations) was “negligible dark toxicity”; in series [11] (48 h), “Negligible dark toxicity”. Besides, in series [11] (48 h, light), the “predominant mode of cell death” value is given as “necrosis”.

`O=C(O)CCCCCOc1cccc(-c2c3nc(c(-c4cccc(OCCCCCC(=O)O)c4)c4ccc([nH]4)c(-c4cccc(OCCCCCC(=O)O)c4)c4nc(c(-c5cccc(OCCCCCC(=O)O)c5)c5ccc2[nH]5)C=C4)C=C3)c1` [C6SHU]: the apoptotic cell population in [2] (setting [17]) came to 23%. This compound also yielded a necrotic cell population in series [2] (setting [17]) of 50%. For the same compound, the viability at 20 µg/mL is 20% in series [2] (Homo sapiens, 20 μg/mL, time point not stated, read-out: viable cell population) and 59% in series [7] (Homo sapiens, NCI-H28, 20 μg/mL, time point not stated, read-out: viable cells). Further, the EC50 in series [2] (setting [13]) is 14 µg/mL (≈ 12.3 µM); in series [2] (setting [14]) it was 14 ± 4 µg/mL (≈ 12.3 µM); in series [7] (setting [15]) it was greater than 20 µg/mL; in series [7] (setting [16]), greater than 20 µg/mL; in series [11] (24 h time point, light), greater than 20 µg/mL; in series [11] (48 h time point, light), greater than 20 µg/mL. Moreover, the IC50 in [7] (Homo sapiens, NCI-H28, NCI-28 as printed, time point not stated, read-out: IC50, PDT effect) is greater than 20 µg/mL. Moreover, the viability at 48 h, 5 μg/mL in series [9] amounted to 119%. In addition, the viability at 5 µg/mL in series [10] was 38%.

Consider `O=C(O)CCCCCCOc1cccc(-c2c3nc(c(-c4cccc(OCCCCCCC(=O)O)c4)c4ccc([nH]4)c(-c4cccc(OCCCCCCC(=O)O)c4)c4nc(c(-c5cccc(OCCCCCCC(=O)O)c5)c5ccc2[nH]5)C=C4)C=C3)c1` [C7SHU], for which, in [12], the cellular localization result was “localize in the cytosolic region”. Besides, the EC50 is 9.6 ± 3 µg/mL (≈ 8.06 µM) in [2] (setting [13]); 7.7 ± 2 µg/mL (≈ 6.46 µM) in series [2] (setting [14]); greater than 20 µg/mL in series [7] (setting [15]); greater than 20 µg/mL in series [7] (setting [16]); greater than 20 µg/mL in series [11] (24 h time point, light); greater than 20 µg/mL in series [11] (48 h time point, light). The viability at 24 h, 5 μg/mL in [3] stood at 66%. Further, the viability at 48 h, 5 μg/mL in [3] stood at 30%. In addition, in series [7] (NCI-H28, 24 h time point), the “EC50 (50% reduction in viable cell populations), PDT activity” value was >20 ^a μg/mL. In addition, in series [8] (NCI-H28, 10 μg/mL, 48 h), the viability at 48 h, 10 μg/mL was 75%.
